As a reminder, the IC50 is the point on the concentration scale where inhibition reaches its midpoint. Lower therefore signals greater potency in that assay.

Structures are written as SMILES. Converted amounts (≈) assume the structure as drawn. The source made the active and inactive calls. The calls are words filed in the database; no cut-off is given here.

Drawing on ChEMBL document CHEMBL3286152, “Development of a fluorometric microplate antiadhesion assay using uropathogenic Escherichia coli and human uroepithelial cells” (J Nat Prod, 2014), this text covers Activity, inhibition and IC50 for 7 molecules.

Data set [1] deals with Escherichia coli. Nature of the data set: Bactericidal activity against BacLight Green labeled Escherichia coli up to 30 ug/ml. The format is ADME, organism-based.
For data set [2], the system named is Escherichia coli. As to the kind of experiment: Inhibition of BacLight Green labeled Escherichia coli adherence to human UEC after 1 hr by flow cytometry analysis. The data set is classed as functional, organism-based. Background: In flow cytometry, cells or beads pass a laser one at a time.
The subject of data set [3] is Escherichia coli. Nature of the data set: Inhibition of BacLight Green labeled Escherichia coli adherence to human UEC at 10 ug/ml after 1 hr by scanning electron microscopy analysis. The data set is classed as functional, organism-based.
The subject of data set [4] is Escherichia coli. Nature of the data set: Inhibition of BacLight Green labeled Escherichia coli adherence to human UEC at 0.1 ug/ml after 1 hr by flow cytometry analysis. The data set is classed as functional, organism-based.
Data set [5] deals with Escherichia coli. Nature of the data set: Induction of morphological changes in BacLight Green labeled Escherichia coli assessed as alteration of fimbriae structure and distribution by fusing fimbriae at 10 ug/ml after 1 hr by transmission electron microscopy analysis. The format is functional, organism-based.
The test system of data set [6] is Escherichia coli. As to the kind of experiment: Inhibition of BacLight Green labeled Escherichia coli adherence to human UEC at 1 ug/ml after 1 hr by flow cytometry analysis. The data set is classed as functional, organism-based.
Data set [7] relates to Escherichia coli. As to the kind of experiment: Inhibition of BacLight Green labeled Escherichia coli adherence to human UEC at 50 ug/ml after 1 hr by scanning electron microscopy analysis. The data set is classed as functional, organism-based.
In data set [8] the test system is Escherichia coli. Nature of the data set: Induction of morphological changes in BacLight Green labeled Escherichia coli assessed as decrease of number of fimbriae at 50 ug/ml after 1 hr by transmission electron microscopy analysis. The data set is classed as functional, organism-based.

Consider `O=C(/C=C/c1ccc(O)c(O)c1)O[C@@H]1C[C@](O)(C(=O)O)C[C@@H](O)[C@H]1O` [CHLOROGENIC ACID], for which the Activity result in data set [1] is listed as “Non-toxic”. Moreover, in data set [2], the inhibition entry is “inactive”.

`O=c1c(O)c(-c2cc(O)c(O)c(O)c2)oc2cc(O)cc(O)c12` [MYRICETIN]: the inhibition result in data set [3] was “Active”. Further, in data set [1], the Activity entry is given as “Non-toxic”. Also, in data set [2], the IC50 was 0.88 µg/mL (≈ 2.77 µM) and the inhibition entry was “Dose-dependent effect”. In addition, the inhibition result in data set [4] was “Active”. Besides, the result in data set [5] was Active.

As to `Oc1cc(O)c2c(c1)O[C@@]1(c3ccc(O)c(O)c3)Oc3cc(O)c4c(c3[C@@H]2[C@H]1O)O[C@H](c1ccc(O)c(O)c1)[C@H](O)C4` [PROANTHOCYANIDIN A2], the Activity entry in data set [1] was “Non-toxic”. Besides, in data set [2], the inhibition entry is “inactive”.

In the case of `Oc1cc(O)c2c(c1)O[C@H](c1ccc(O)c(O)c1)[C@H](O)[C@H]2c1c(O)cc(O)c2c1O[C@H](c1ccc(O)c(O)c1)[C@@H](O)C2` [PROCYANIDIN B1], the Activity result in data set [1] is recorded as “Non-toxic”. In data set [6], the inhibition result is “Active”. In addition, the inhibition entry in data set [2] was “Dose-dependent effect”.

As to `Oc1cc(O)c2c(c1)O[C@H](c1ccc(O)c(O)c1)[C@H](O)[C@H]2c1c(O)cc(O)c2c1O[C@H](c1ccc(O)c(O)c1)[C@H](O)C2` [PROCYANIDIN B2], in data set [1], the Activity result is reported as “Non-toxic”. Further, the inhibition result in data set [6] and in data set [7] was “Active” throughout. In addition, the inhibition result in data set [2] is “Dose-dependent effect”. Further, in data set [8], the result was Active.

Take `Oc1cc(O)c2c(c1)O[C@H](c1ccc(O)c(O)c1)[C@H](O)[C@H]2c1c(O)cc(O)c2c1O[C@H](c1ccc(O)c(O)c1)[C@H](O)[C@H]2c1c(O)cc(O)c2c1O[C@H](c1ccc(O)c(O)c1)[C@H](O)C2` [PROCYANIDIN C1]: the Activity entry in data set [1] is on record as “Non-toxic”. The inhibition result in data set [6] was “Active”. In addition, the inhibition entry in data set [2] is “Dose-dependent effect”.

As to `O=c1c(O)c(-c2ccc(O)c(O)c2)oc2cc(O)cc(O)c12` [QUERCETIN], in data set [1], the Activity result was “Non-toxic”. In data set [2], the IC50 worked out at 3.8 µg/mL (≈ 12.6 µM) and the inhibition entry is “Dose-dependent effect”. Besides, in data set [4], the inhibition entry was “Active”.
